# Results published in patent US20240277739A1, “NUTRITONAL COMPOSITIONS FOR GUT BARRIER FUNCTION” (N.V. Nutricia, priority 2021, published 2024).
# Experiments:
# Caco-2 cell monolayer [1] = assay: TEER of Caco-2 monolayer with OA, PA, beta3′-GL and combinations (no DON); assay type: cell-based, human; details: for effect on TEER at 100 μM fatty acid, in words: data not shown
# Method: (§1) Caco-2 cells were used according to established methods. In brief: cells were cultured in Dulbecco's modified Eagle medium (DMEM) and seeded at a density of 0.3×10^5 cells into 0.3 cm^2 high pore density (0.4 μm) inserts with a polyethylene terephthalate membrane (BD Biosciences, Franklin Lakes, NJ, USA) placed in a 24-well plate. The Caco-2 cells were maintained in a humidified atmosphere of 95% air and 5% CO2 at 37° C. After 17-19 days of culturing, a confluent monolayer was obtained with a mean Transepithelial electrical resistance (TEER) exceeding 400 Ω cm^2 measured by a Millicell-Electrical Resistance System voltohm-meter (Millipore, Temecula, CA, USA).
# (§2) Measurements of the transepithelial electrical resistance (TEER) and lucifer yellow (LY) permeability were conducted to investigate barrier integrity. For TEER measurements a Millicel-ERS voltohmmeter connected to a pair of chopsticks electrodes was used to measure the TEER values. Results are expressed as a percentage of the initial value. For paracellular tracer flux assay the membrane impermeable lucifer yellow (LY) (Sigma, St Luis, MO, USA) was added in a concentration of 16 μg/ml to the apical compartment in the transwell plate for 4 h, and the paracellular flux was determined by measuring the fluorescence intensity in the basolateral compartment with a spectrophotofluorimeter (FLUOstar Optima, BMG Labtech, Offenburg, Germany) set at excitation and emission wavelengths of 410 and 520 nm, respectively. Release of interleukin-8 (IL-8 or CXCL8), which is a typical marker for inflammation, was quantified in the medium of the apical side and the basolateral side of the Caco-2 transwell inserts in response to the treatments. CXCL8 concentrations were measured by using the human IL-8 ELISA assay (BD Biosciences, Pharmingem, San Diego, CA, USA) according to manufacturer's instructions. For more details on materials and methods see Akbari et al, 2016, Eur J Nutr. 56(5):1919-1930.
# (§3) Barrier function experiments were performed using the method as described in example 3. Oleic acid (OA) and palmitic acid were obtained from Sigma-Aldrich. Palmitic acid was coupled to fatty acid free Bovine Serum Albumin (BSA, Roche) to make a 6:1 BSA-palmitic acid conjugate solution, which is needed to dissolve palmitic acid in culture medium and therefore common practice in the field (reference Alsabeeh et al, Biochim. Biophys Acta. 2018 February; 1863(2): 143-151). Throughout this document this conjugate solution will be abbreviated as PA.
# Tables 5a and 5b show the effects of OA and PA and beta3′-GL and its combinations on the intestinal barrier function as measured by TEER.
# [2] = tested on: T84 human intestinal epithelial cells; assay: TEER of T84 monolayers pre-incubated with fatty acids, SCFA mix or combination; assay type: cell-based; details: for % TEER (24 h): relative to medium control at 24 h; for increase of gut barrier function (TEER) versus control: fatty acid 50 μM in combination with SCFA 40 mM; for increase of gut barrier function (TEER) versus control / change of gut barrier function (TEER) versus control: 24 h; for increase of gut barrier function expected for an additive effect: fatty acid 50 μM plus SCFA 40 mM; for change of gut barrier function (TEER) versus control: single ingredient: fatty acid 50 μM or SCFA mix 40 mM
# Description: The effect of palmitic acid and oleic acid combined with a mixture of short chain fatty acids (SCFA mix) having a concentration profile that is typical for fermentation of a mixture of galacto-oligosaccharides (GOS) derived from VivinalGOS and long chain fructo-oligosaccharides (RaftilineHP) in a ratio of 9/1 (w/w) on barrier permeability was investigated. The concentration profiles of SCFA is as disclosed in Example 3 of EP2100520 (incorporated by reference herein), specifically as shown in FIG. 3A of EP2100520 (incorporated by reference herein) (see second bar in FIG. 3A), i.e. about 75% being acetic acid. Oleic acid and palmitic acid were obtained from Sigma-Aldrich and coupled to fatty acid free Bovine Serum Albumin (BSA, Sigma-Aldrich) prior to cell treatment.
# T84 human intestinal epithelial cells are commonly used to study intestinal barrier integrity in vitro. T84 cells (ATCC, USA) were cultured on 12 mm transwell inserts (0.4 μm, Corning Costrar, USA) in DMEM-F12 glutamax with penicillin-streptomycin (100 IU/ml), supplemented with […]. T84 cells were used 14 days after reaching confluence. Monolayers of T84 cultured on transwell filters were pre-incubated with fatty acids, SCFA mix or a combination thereof for a period of 24 hours.
# Epithelial barrier integrity was assessed by measuring transepithelial resistance (TEER; Ω×cm^2) with the epithelial volt-ohm meter (Millicell ERS-2; Millipore USA). TEER measurements were performed at 0, 24, h of incubation. TEER values of the fatty acids (i.e. SCFA, OA, PA) are expressed relative to the medium control TEER values at 24 h.
# Caco-2 cell monolayer [3] = assay: TEER of Caco-2 monolayer, DON-induced impairment of barrier integrity; assay type: cell-based, human; details: for TEER in the presence of DON (FIG. 3), single ingredient, in words: DON 4.2 μM, 0.75 wt % beta3′-GL or 600 μM fatty acid alone; for effect on DON-induced loss of epithelial barrier integrity, TEER (FIGS. 1A, 1B), in words: 0.75 wt. % GL, 24 h pretreatment, then DON 4.2 μM 24 h
# Method: (§4) beta1,3′-galactosyl-lactose (beta3′-GL), beta1,4′-galactosyllactose (beta4′-GL) and beta1,6′-galactosyl-lactose (beta6′-GL) were obtained from Carbosynth (Berkshire, UK), alpha1,3′-galactosyl-lactose (alpha3′-GL) was obtained from Elicityl (Crolles, France). Purified deoxydivalenol (DON) (D0156; Sigma Aldrich, St Luis, MO, USA) was dissolved in pure ethanol and stored at −20° C. Human epithelial colorectal adenocarcinoma (Caco-2) cells were obtained from American Type Tissue Collection (Code HTB-37) (Manasse, VA, USA, passage 90-102).
# as §1
# (§5) Caco-2 cell monolayers were thus grown in a transwell system, which is a model for intestinal barrier function. The monolayers were pretreated for 24 h with different GLs, including beta3′-GL, alpha3′-GL, beta4′-GL and beta6′-GL in a concentration of 0.75 wt. % of the GL, before being exposed to the fungal toxin deoxynivalenol (DON), which is a trigger and model compound to impair intestinal barrier. DON was diluted to a final concentration of 4.2 μM in complete cell medium and added to the apical side as well as to the basolateral side of the transwell inserts. […] Incubation with DON was 24 h.
# as §2
# (§6) For TOS concentrations of 0.25 wt. % (TOS 0.25) and 0.5 wt. % (TOS 0.5) were tested.
# as §3
# Caco-2 cell monolayer [4] = assay: Lucifer yellow (LY) paracellular flux across Caco-2 monolayer, DON-induced impairment; assay type: cell-based, human; details: for effect on DON-induced loss of epithelial barrier integrity, LY flux (FIGS. 1C, 1D), in words: 0.75 wt. % GL, 24 h pretreatment, then DON 4.2 μM 24 h
# Method: as §4, §1, §5, §2, §6
# Barrier function experiments were performed using the method as described in example 3. Oleic acid (OA) and palmitic acid were obtained from Sigma-Aldrich. […]
# [5] = tested on: infant microbiota (pooled fecal samples from 3 healthy infants); assay: Fermentation of galactosyllactoses by infant fecal microbiota (i-Screen anaerobic colon model); parameters: species or system human; acetate / lactate: unit not given here; details: for acetate / lactate: t = 24 h
# Method: The effect of pure 3′-GL, 4′-GL, and 6′-GL of the three galactosyllactoses functionality (pH, lactate, acetate levels) was evaluated. Beta1,3-galactosyllactose (beat3′-GL), beta1,4-galactosyllactose (beta4′-GL) and beta1,6-galactosyllactose (beta6′-GL) were obtained from Carbosynth (Berkshire, UK) Measurements of all parameters were performed after a 24-hour incubation in the high-throughput anaerobic colon model, i-Screen™ (TNO, Zeist, the Netherlands).
# Fecal samples from 3 healthy infants (aged 1-4 months) were pooled and activated for 4 hours in a modified standard ileal efflux medium (pH 6.0) at 37° C. under anaerobic conditions. Next, each GL was added. After an incubation for 24 hours at 37° C. under anaerobic conditions, samples were collected for further analysis and pH levels were immediately measured using a pH meter MultiCal pH 526 (WTW, Weilheim, Germany). The samples were centrifuged at 4,000 g for 5 minutes and the supernatant was filter sterilized using 0.45 μm filters. For the SCFA analysis, a mixture of formic acid ([…]), methanol and 2-ethyl butyric acid (internal standard, 2 mg/ml in methanol) was added to the filtered supernatant. A 3 μl sample with a split ratio of 75.0 was injected on a GC-column (ZB-5HT inferno, ID 0.52 mm, film thickness 0.10 μm; Zebron; phenomenex, USA) in a Shimadzu GC-2014 gas chromatograph. The levels of acetic acid and lactic acid were measured. For lactate analysis, the total of D- and L-lactate was determined the filtered supernatant by the Arena 20XL analyser. This assay is based on the D- and L-lactic acid assay kits (Thermo Fisher Scientific oy, www.e-labeling.eu/TSF9843061FU and www.e-labeling.eu/TSF9843081FU). The assay was performed following the manufacturer's instructions with one adaptation: the reagents DLac RI and LLac RI from the two kits were mixed in a 1:1 ratio to detect both L and D isomers of lactic acid simultaneously. Calibration of the assay was done with an ‘Acid combination standard’ (order number 984382) containing both L-lactic acid and D-lactic acid.
# [6] = tested on: interleukin-8 (IL-8 or CXCL8) release; assay: DON-induced IL-8 (CXCL8) release from Caco-2 cells, ELISA; assay type: cell-based, human; details: DON 4.2 μM alone
# Method: as §4
# Caco-2 cells were used according to established methods. […] After 17-19 days of culturing, a confluent monolayer was obtained with a mean Transepithelial electrical resistance (TEER) exceeding 400 Ω cm^2 measured by a Millicell-Electrical Resistance System voltohm-meter (Millipore, Temecula, CA, USA). […]
# Measurements of the transepithelial electrical resistance (TEER) and lucifer yellow (LY) permeability were conducted to investigate barrier integrity. […] Results are expressed as a percentage of the initial value. […] Release of interleukin-8 (IL-8 or CXCL8), which is a typical marker for inflammation, was quantified in the medium of the apical side and the basolateral side of the Caco-2 transwell inserts in response to the treatments. […]
# [7] = fatty acid 50 μM + SCFA mix 40 mM
# [8] = fatty acid 50 μM, SCFA mix 0 mM
Molecule,"TEER in the presence of DON (FIG. 3), single ingredient, in words (Caco-2 cell monolayer [3])","effect on DON-induced loss of epithelial barrier integrity, LY flux (FIGS. 1C, 1D), in words (Caco-2 cell monolayer [4])","effect on DON-induced loss of epithelial barrier integrity, TEER (FIGS. 1A, 1B), in words (Caco-2 cell monolayer [3])",acetate ([5]; 3 mg/ml),lactate ([5]; 3 mg/ml),acetate ([5]; 9 mg/ml),lactate ([5]; 9 mg/ml),further results
"CCCCCCCC/C=C\CCCCCCCC(=O)O [OA, oleic acid]",somewhat higher than in the control,,,,,,,"effect on TEER at 100 μM fatty acid, in words (Caco-2 cell monolayer [1]): improving effect on TEER was also observed; % TEER (24 h) (Caco-2 cell monolayer [1]; Table 5a: oleic acid 600 μM, beta3′GL 0, relative to the medium control): 138%; % TEER (24 h) [2, 7]: 210%; increase of gut barrier function (TEER) versus control [2]: 110%; increase of gut barrier function expected for an additive effect [2]: 94%; % TEER (24 h) [2, 8]: 134%; change of gut barrier function (TEER) versus control [2]: 34%"
"OC[C@H]1O[C@H](O[C@H]2[C@@H](O)[C@@H](CO)O[C@@H](O[C@H]3[C@H](O)[C@@H](O)C(O)O[C@@H]3CO)[C@@H]2O)[C@H](O)[C@@H](O)[C@H]1O (stereo partly drawn) [alpha3′-GL, Gal (alpha 1-3)-Gal (beta 1-4)-Glc]",,did not prevent the DON-induced disrupted intestinal barrier,did not prevent the DON-induced disrupted intestinal barrier,,,,,
Gal (beta 1-3)-Gal (beta 1-4)-Glc [beta3′-GL],somewhat higher than in the control,reduction in the DON-affected LY flux,increased TEER values,61.3,0.0,77.1,1.3,"% TEER (24 h) (Caco-2 cell monolayer [1]; Table 5a: beta3′GL 0.75 w/v %, oleic acid 0, relative to the medium control): 117%; % TEER (24 h) (Caco-2 cell monolayer [1]; Table 5b: 3′GL 0.75, palmitic acid 0): 129%; pH, acetate and lactate after fermentation, in words ([5]; 24 h incubation): the highest levels of acetate and lactate and the lowest pH level; beta3′-GL concentration at which the effect on gut barrier function is observed (Caco-2 cell monolayer [3]; beta3′-GL content of the TOS tested, DON model): lower than 0.17 wt. %"
"OC[C@H]1O[C@@H](OC[C@H]2O[C@@H](O[C@H]3[C@H](O)[C@@H](O)C(O)O[C@@H]3CO)[C@H](O)[C@@H](O)[C@H]2O)[C@H](O)[C@@H](O)[C@H]1O (stereo partly drawn) [beta6′-GL, Gal (beta 1-6) Gal (beta 1-4)-Glc]",,did not show a significant effect,did not show a significant effect,51.9,0.0,74.3,2.7,
"OC[C@H]1O[C@@H](O[C@@H]2[C@H](O)[C@@H](O)[C@H](O[C@H]3[C@H](O)[C@@H](O)C(O)O[C@@H]3CO)O[C@@H]2CO)[C@H](O)[C@@H](O)[C@H]1O (stereo partly drawn) [beta4′-GL, Gal (beta 1-4)-Gal (beta 1-4)-Glc]",,did not show a significant effect,did not show a significant effect,52.2,0.0,65.4,3.6,
"CCCCCCCCCCCCCCCC(=O)O [PA, palmitic acid]",did not improve the TEER in the presence of DON,,,,,,,"effect on TEER at 100 μM fatty acid, in words (Caco-2 cell monolayer [1]): This effect on TEER was also observed; % TEER (24 h) (Caco-2 cell monolayer [1]; Table 5b: palmitic acid 600 μM, 3′GL 0): 69%; % TEER (24 h) [2, 7]: 143%; increase of gut barrier function (TEER) versus control [2]: 43%; increase of gut barrier function expected for an additive effect [2]: 54%; % TEER (24 h) [2, 8]: 94%; change of gut barrier function (TEER) versus control [2]: −6%; gut barrier function by LYF assay, fatty acid alone, in words (Caco-2 cell monolayer [4]; DON model, data not shown): A similar effect was observed"
"CC1=C[C@H]2O[C@@H]3[C@H](O)C[C@](C)([C@@]2(CO)[C@H](O)C1=O)[C@]31CO1 [DON, deoxynivalenol]",,,,,,,,"CXCL8 (IL-8) release (FIG. 2), in words [6]: increased CXCL8 (IL-8) release"
